Experimental findings from US11497751B2, “Modulators of Rho-associated protein kinase” (Redx Pharma PLC, priority 2018, dated 2022) are described below.

Bounds are passed on as bounds.

The target of this test is T1, N-terminal 6His-tagged ROCK2 catalytic domain 11-552 (Homo sapiens, UniProt O75116).
T1 construct: N-terminal 6His-tagged ROCK2 catalytic domain 11-552; 6His (N); purchased Dundee University, UK; host or cells: baculovirus expression system
T1 sequence (O75116 11-552): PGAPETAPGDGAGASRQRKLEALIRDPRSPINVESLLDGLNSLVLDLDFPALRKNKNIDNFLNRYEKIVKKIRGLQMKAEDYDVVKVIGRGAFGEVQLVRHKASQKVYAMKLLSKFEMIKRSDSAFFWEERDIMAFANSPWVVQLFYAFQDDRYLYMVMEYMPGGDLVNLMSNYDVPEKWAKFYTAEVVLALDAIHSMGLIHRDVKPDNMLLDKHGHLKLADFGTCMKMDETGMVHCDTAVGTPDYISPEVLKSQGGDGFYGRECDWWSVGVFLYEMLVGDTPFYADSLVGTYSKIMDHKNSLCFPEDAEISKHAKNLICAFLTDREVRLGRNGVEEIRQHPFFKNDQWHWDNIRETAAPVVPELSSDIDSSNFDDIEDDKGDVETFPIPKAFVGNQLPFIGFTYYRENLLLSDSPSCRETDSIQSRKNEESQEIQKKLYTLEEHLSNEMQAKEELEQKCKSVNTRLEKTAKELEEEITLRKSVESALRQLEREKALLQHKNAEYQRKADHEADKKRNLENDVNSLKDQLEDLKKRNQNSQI
The test is described as follows: ROCK2 binding activity: ROCK2 inhibition, ADP-Glo Kinase Assay. It counts as biochemical. Particulars: 1.25 nM ROCK2, 100 μM long S6 peptide, 20 μM ATP; 1 hour pre-incubation; read-out: ADP-Glo kinase activity assay ROCK2 Category. The essentials:
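1.25 nM baculovirus-expressed ROCK2 pre-incubated 1 h with compound (1% DMSO), then 100 μM long S6 peptide and 20 μM ATP added for 1 h; 50 mM HEPES pH 7.5, 10 mM Mg acetate, 1 mM DTT. ADP-Glo luminescence; IC50 from four-parameter logistic fit.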
A general note: ADP-Glo first removes unused ATP, then detects ADP through luciferase.
Take `COc1cc(-c2nc(Nc3ccc4[nH]ncc4c3Cl)n(C)n2)ccc1OCC(=O)NCC1(O)CC1` [Example 209]: the IC50 was below 300 nM.

`Cn1nc(-c2ccc(C(=O)NC(CO)C(F)(F)F)cc2)nc1Nc1ccc2[nH]ncc2c1C1CC1` (centres unmarked) [Example 311]: the IC50 is below 300 nM.

As to `CC(C)NC(=O)COc1ccc(-c2nc(Nc3ccc4[nH]ncc4c3)n(C)n2)c(Cl)c1` [Example 407], the IC50 was below 300 nM. Consider `Cn1nc(-c2ccc(C(=O)NC3CCC3)cc2)nc1Nc1ccc2[nH]ncc2c1Cl` [Example 176], for which the IC50 is below 300 nM.

Turning to `Cn1nc(-c2ccc3c(c2)CCN(C(=O)CNCC(F)(F)F)C3)nc1Nc1ccc2[nH]ncc2c1Cl` [Example 239], the IC50 is below 300 nM. As for `Cn1nc(C2=CCCC2)nc1Nc1ccc2[nH]ncc2c1Cl` [Example 108], the figure is 300 to 3000 nM; as for `Cn1nc(-c2cnn(CCN3CCOCC3)c2)nc1Nc1ccc2[nH]ncc2c1Cl` [Example 117], 300 to 3000 nM; as for `COc1cc(-c2nc(Nc3ccc4[nH]ncc4c3Cl)n(C)n2)ccc1OCC(=O)NC1CCOC1` (centres unmarked) [Example 51], below 300 nM.

For `CCC(=O)N1CCc2cc(-c3nc(Nc4ccc5[nH]ncc5c4C4CC4)n(C)n3)ccc2C1` [Example 391], the IC50 is below 300 nM.

For the compound `CC(C)NC(=O)COc1ccc(-c2nc(Nc3ccc4[nH]ncc4c3)n(C)n2)c(F)c1F` [Example 411], the IC50 was below 300 nM. As for `COC(=O)[C@H](CC(C)C)NC(=O)c1ccc(-c2nc(Nc3ccc4[nH]ncc4c3C3CC3)n(C)n2)cc1` [Example 302], the figure is below 300 nM; as for `CC1CC1NC(=O)c1ccc(-c2nc(Nc3ccc4[nH]ncc4c3C3CC3)n(C)n2)cc1` (centres unmarked) [Example 312], below 300 nM. As for `CC(C)NC(=O)Cn1ccc(-c2nnc(Nc3ccc4[nH]ncc4c3)[nH]2)cc1=O` [Example 28], the figure is 3000 to 10000 nM; as for `COc1cc(-c2nc(Nc3cnc4[nH]ncc4c3)n(C)n2)ccc1C(=O)NC1CC1` [Example 332], 3000 to 10000 nM; as for `COc1cc(-c2nc(Nc3ccc4[nH]ncc4c3Cl)n(C)n2)ccc1C(=O)NCC(F)(F)F` [Example 201], below 300 nM.

In the case of `COCCn1nc(-c2ccc(C(=O)NCC(F)(F)F)c(OC)c2)nc1Nc1ccc2[nH]ncc2c1C1CC1` [Example 439], the IC50 was below 300 nM. As for `COc1cc(-c2nc(N(C)c3ccc4[nH]ncc4c3)n(C)n2)ccc1OCC(=O)NC(C)C` [Example 46], the figure is above 10000 nM; as for `Cc1c(Nc2nc(-c3ccc(C(=O)NCC(F)(F)F)c(F)c3F)nn2C)ccc2[nH]ncc12` [Example 419], below 300 nM; as for `CCNC(=O)c1ccc(-c2nc(Nc3ccc4[nH]ncc4c3)n(C)n2)cc1C(F)(F)F` [Example 398], 3000 to 10000 nM. To `CC(C)NC(=O)COc1ccc(-c2nc(Nc3ccc4[nH]ncc4c3)n(C)n2)c(C#N)c1` [Example 403] belongs below 300 nM; to `Cn1nc(-c2ccc(C(=O)NCC(F)(F)F)cc2)nc1Nc1ccc2[nH]nc(F)c2c1` [Example 428], below 300 nM; to `CC(C)NC(=O)COc1ccc(-c2nnc(Nc3ccc4[nH]ncc4c3)[nH]2)cc1CN` [Example 15], 300 to 3000 nM. To `Cn1nc(-c2ccc(C(=O)NCC(F)(F)F)cc2)nc1Nc1ccc2[nH]ncc2c1Cl` [Example 171] belongs below 300 nM; to `CCNC(=O)c1cc(F)c(-c2nc(Nc3ccc4[nH]ncc4c3)n(C)n2)cc1F` [Example 409], below 300 nM. Turning to `COc1cc(-c2nc(Nc3ccc4[nH]ncc4c3C3CC3)n(C)n2)ccc1C(=O)NC1CC1` [Example 383], the IC50 was below 300 nM. As for `COc1cc(-c2nc(Nc3ccc4[nH]ncc4c3Cl)n(C)n2)ccc1OCC(=O)N[C@@H]1CCCC[C@H]1O` [Example 213], the figure is below 300 nM; as for `Cn1nc(-c2ccc(S(=O)(=O)N3CCOCC3)cc2)nc1Nc1ccc2[nH]ncc2c1Cl` [Example 78], 3000 to 10000 nM; as for `Cn1nc(-c2ccc(C(=O)NCC(F)(F)CO)cc2)nc1Nc1ccc2[nH]ncc2c1C1CC1` [Example 284], below 300 nM. To `CCNC(=O)c1ccc(-c2nc(Nc3ccc4[nH]ncc4c3)n(C)n2)cc1OC` [Example 168] belongs below 300 nM; to `CCNC(=O)c1ccc(-c2nc(Nc3ccc4[nH]ncc4c3Cl)n(C)n2)cc1Cl` [Example 254], 300 to 3000 nM; to `CCNC(=O)c1ccc(-c2nc(Nc3ccc4[nH]ncc4c3CC)n(C)n2)cc1OC` [Example 313], below 300 nM.

For `CC(O)Cn1nc(-c2ccc(C(=O)NCC(F)(F)F)cc2)nc1Nc1ccc2[nH]ncc2c1C1CC1` (centres unmarked) [Example 444], the IC50 is below 300 nM. To `Cn1nc(-c2cccc(N3CCOCC3)c2)nc1Nc1ccc2[nH]ncc2c1Cl` [Example 69] belongs below 300 nM; to `COc1cc(-c2nc(Nc3ccc4[nH]ncc4c3Cl)n(C)n2)ccc1OCC(=O)NC(C)c1cccnc1` (centres unmarked) [Example 216], below 300 nM; to `CS(=O)(=O)NC(=O)COc1ccc(-c2nnc(Nc3ccc4[nH]ncc4c3)[nH]2)cc1` [Example 37], 300 to 3000 nM. As to `Cn1nc(-c2ccc(C(=O)NCC(F)(F)F)cc2)nc1Nc1ccc2[nH]nc(Cl)c2c1` [Example 430], the IC50 was below 300 nM. As for `COc1cc(-c2nc(Nc3cnc4[nH]ncc4c3)n(C)n2)ccc1C(=O)NC(C)C` [Example 331], the figure is 300 to 3000 nM; as for `Cn1nc(-c2cccc(C(=O)NC3CC3)c2)nc1Nc1ccc2[nH]ncc2c1Cl` [Example 269], below 300 nM.

Turning to `CC(C)c1c(Nc2nc(-c3ccc(C(=O)NCC(F)(F)F)cc3)nn2C)ccc2[nH]ncc12` [Example 425], the IC50 lay within 300 to 3000 nM. As for `C=C(C)c1c(Nc2nc(-c3ccc(C(=O)NCC)cc3)nn2C)ccc2[nH]ncc12` [Example 459, N-ethyl-4-[5-[(4-isopropenyl-1H-indazol-5-yl)amino]-1-methyl-1,2,4-triazol-3-yl]benzamide], the figure is below 300 nM. As for `COc1ccc(-c2nc(Nc3ccc4[nH]ncc4c3Cl)n(C)n2)cc1` [Example 99], the IC50 was below 300 nM. As for `Cn1nc(-c2ccc(O)cc2)nc1Nc1ccc2[nH]ncc2c1Cl` [Example 91], the figure is below 300 nM; as for `O=C(COc1ccc(-c2nnc(Nc3ccc4[nH]ncc4c3)[nH]2)cc1)N1CCOCC1` [Example 154, 2-[4-[5-(1H-Indazol-5-ylamino)-4H-1,2,4-triazol-3-yl]phenoxy]-1-morpholinoethanone], 300 to 3000 nM; as for `Cn1nc(-c2ccc(C(=O)NCC(C)(C)N)cc2)nc1Nc1ccc2[nH]ncc2c1C1CC1` [Example 291], 3000 to 10000 nM.

On to `COc1cc(-c2nc(Nc3ccc4[nH]ncc4c3Cl)n(-c3ccccc3)n2)ccc1OCC(=O)NC1CCNC1` (centres unmarked) [Example 149], for which the IC50 is below 300 nM. As for `CC(C)NC(=O)CN1CCOc2cc(-c3nc(Nc4ccc5[nH]ncc5c4Cl)n(C)n3)ccc21` [Example 58], the figure is below 300 nM.

For the compound `CC(C)NC(=O)COc1ccc(-c2nc(Nc3ccc4[nH]ncc4c3Cl)n(C)n2)c(C(F)(F)F)c1` [Example 475], the IC50 was below 300 nM. Consider `CCc1cc(-c2nnc(Nc3ccc4[nH]ncc4c3)[nH]2)ccc1OCC(=O)NC(C)C` [Example 42], for which the IC50 is below 300 nM.

On to `Cn1nc(-c2ccc(C(=O)NC3CC(O)C3)cc2)nc1Nc1ccc2[nH]ncc2c1C1CC1` (centres unmarked) [Example 288], for which the IC50 is below 300 nM. As for `Cn1nc(-c2ccc3c(c2)OCCC3O)nc1Nc1ccc2[nH]ncc2c1Cl` (centres unmarked) [Example 234, 7-[5-[(4-chloro-1H-indazol-5-yl)amino]-1-methyl-1,2,4-triazol-3-yl]chroman-4-ol], the figure is 300 to 3000 nM; as for `COc1ccccc1-c1nnc(Nc2ccc3[nH]ncc3c2)[nH]1` [Example 4], above 10000 nM. To `O=C(COc1ccc(-c2nnc(Nc3ccc4[nH]ncc4c3)[nH]2)cc1)NC1CC1` [Example 162] belongs below 300 nM.

In the case of `CC(C)NC(=O)COc1ccc(-c2nc(Nc3ccc4[nH]ncc4c3)n(-c3ccccc3F)n2)cc1` [Example 146], the IC50 is below 300 nM.

As for `CCn1nc(-c2ccc(C(=O)NCC(F)(F)F)c(OC)c2)nc1Nc1ccc2[nH]ncc2c1C` [Example 457], the IC50 is below 300 nM.

As to `COc1cc(-c2nc(Nc3cc(Cl)c4[nH]ncc4c3)n(C)n2)ccc1C(=O)NC(C)C` [Example 271], the IC50 is below 300 nM. To `Cn1nc(-c2cncnc2)nc1Nc1ccc2[nH]ncc2c1Cl` [Example 76] belongs 300 to 3000 nM. As for `Cn1nc(-c2ccc(C(N)=O)cc2)nc1Nc1ccc2[nH]ncc2c1Cl` [Example 131], the figure is below 300 nM; as for `CC(C)NC(=O)c1ccc(-c2nc(Nc3ccc4[nH]ncc4c3Cl)n(C)n2)cc1` [Example 166, 4-[5-[(4-chloro-1H-indazol-5-yl)amino]-1-methyl-1,2,4-triazol-3-yl]-N-isopropyl-benzamide], below 300 nM; as for `Cc1cc(OCC(=O)NC(C)C)ccc1-c1nnc(Nc2ccc3[nH]ncc3c2)[nH]1` [Example 26], below 300 nM. For the compound `Cn1nc(-c2ccc(C(=O)NC3CCOC3)cc2)nc1Nc1ccc2[nH]ncc2c1C1CC1` (centres unmarked) [Example 303], the IC50 was below 300 nM. As for `Cn1nc(-c2ccco2)nc1Nc1ccc2[nH]ncc2c1Cl` [Example 96], the figure is 300 to 3000 nM; as for `CCc1c(Nc2nc(-c3ccc(C(=O)NC(C)C)c(OC)c3)nn2C)ccc2[nH]ncc12` [Example 314], below 300 nM; as for `CCNC(=O)c1ccc(-c2nc(Nc3ccc4[nH]ncc4c3)n(C)n2)c(C)c1` [Example 399], below 300 nM. As for `CC(C)NC(=O)COc1ccc(-c2nnc(Nc3ccc4[nH]ncc4c3)[nH]2)cn1` [Example 29], the figure is 300 to 3000 nM.

On to `COc1cc(-c2nc(Nc3ccc4[nH]ncc4c3Cl)n(C(C)C)n2)ccc1C(=O)NCC(F)(F)F` [Example 192], for which the IC50 is below 300 nM.
